Results reported in patent publication US12660819B2, “Herbicidal derivatives” (SYNGENTA CROP PROTECTION AG, priority 2020, dated 2026).

Assays:
Assay type in all cases: in vivo
[1] = tested on: Setaria faberi (SETFA); experiment: Pre-emergence Test (glasshouse, percentage damage to the plant); details: 1000 g/ha unless otherwise stated; for percentage damage to the plant, SETFA (five-point scale): Setaria faberi
[2] = tested on: Echinochloa crus-galli (ECHCG); experiment: as above; details: 1000 g/ha unless otherwise stated; for percentage damage to the plant, ECHCG (five-point scale): Echinochloa crus-galli
[3] = tested on: Ipomoea hederacea (IPOHE); experiment: as above; details: 1000 g/ha unless otherwise stated; for percentage damage to the plant, IPOHE (five-point scale): Ipomoea hederacea
[4] = tested on: Amaranthus palmeri (AMAPA); experiment: as above; details: 1000 g/ha unless otherwise stated; for percentage damage to the plant, AMAPA (five-point scale): Amaranthus palmeri
[5] = tested on: Amaranthus retoflexus (AMARE); experiment: as above; details: 1000 g/ha unless otherwise stated; for percentage damage to the plant, AMARE (five-point scale): Amaranthus retoflexus
[6] = tested on: Zea mays (ZEAMX); experiment: as above; details: 1000 g/ha unless otherwise stated; for percentage damage to the plant, ZEAMX (five-point scale): Zea mays
[7] = tested on: Echinochloa crus-galli (ECHCG); experiment: Post-emergence Test (glasshouse, percentage damage to the plant); details: post-emergence; 1000 g/ha unless otherwise stated; evaluated after 13 days
In short: (§1)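 Compound formulated in 50:50 acetone/water with 0.5% Tween 20 was diluted to an aqueous spray and applied at 1000 g/ha, unless otherwise stated, onto sown pots. Evaluation after 13 days gave percentage damage, banded into a 1–5 score.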

[8] = tested on: Setaria faberi (SETFA); experiment: as above; details: 1000 g/ha unless otherwise stated, evaluated after 13 days; for SETFA, percentage damage caused to the plant (five-point scale): post-emergence
In short: (§2)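 Damage was rated 13 days after treatment and expressed on a five-point scale: 5=81-100%, 4=61-80%, 3=41-60%, 2=21-40%, 1=0-20%. Spray was applied at 1000 g/ha unless otherwise stated, from acetone/water (50:50) with 0.5% Tween 20, to sown pots.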

[9] = tested on: Amaranthus palmeri (AMAPA); experiment: as above; details: 1000 g/ha unless otherwise stated, evaluated after 13 days; for AMAPA, percentage damage caused to the plant (five-point scale): post-emergence
In short: as §1

[10] = tested on: Ipomoea hederacea (IPOHE); experiment: as above; details: 1000 g/ha unless otherwise stated, evaluated after 13 days; for IPOHE, percentage damage caused to the plant (five-point scale): post-emergence
In short: as §2

[11] = tested on: Zea mays (ZEAMX); experiment: as above; details: 1000 g/ha unless otherwise stated, evaluated after 13 days; for ZEAMX, percentage damage caused to the plant (five-point scale): post-emergence
In short: as §2

[12] = tested on: Amaranthus retoflexus (AMARE); experiment: as above; details: 1000 g/ha unless otherwise stated, evaluated after 13 days; for AMARE, percentage damage caused to the plant (five-point scale): post-emergence
In short: as §1

Structure (SMILES) | percentage damage to the plant, SETFA (five-point scale) [1] | percentage damage to the plant, ECHCG (five-point scale) [2] | percentage damage to the plant, IPOHE (five-point scale) [3] | percentage damage to the plant, AMAPA (five-point scale) [4] | percentage damage to the plant, AMARE (five-point scale) [5] | percentage damage to the plant, ZEAMX (five-point scale) [6] | SETFA, percentage damage caused to the plant (five-point scale) [8] | AMAPA, percentage damage caused to the plant (five-point scale) [9] | IPOHE, percentage damage caused to the plant (five-point scale) [10] | ZEAMX, percentage damage caused to the plant (five-point scale) [11] | AMARE, percentage damage caused to the plant (five-point scale) [12] | also measured
CCn1c(C)c(-c2ccc(F)cc2F)c(=O)c(C(=O)OC)c1-c1cnc(Cl)c(Cl)c1 [Compound 213, methyl 2-(5,6-dichloro-3-pyridyl)-5-(2,4-difluorophenyl)-1-ethyl-6-methyl-4-oxo-pyridine-3-carboxylate] | 0 | 0 | 0 | 0 | 0 | 0 | 0 | 3 (3=41-60%) | 1 (1=0-20%) | 1 (1=0-20%) |  | ECHCG, percentage damage caused to the plant (five-point scale) [7]: 0
CCn1c(C)c(-c2ccc(Cl)cc2SC)c(=O)c(C(=O)O)c1-c1ccc(Cl)c(Cl)c1 [Compound 158, 5-(4-chloro-2-methylsulfanyl-phenyl)-2-(3,4-dichlorophenyl)-1-ethyl-6-methyl-4-oxo-pyridine-3-carboxylic acid] |  |  |  |  |  |  |  |  |  |  |  | percentage damage to the plant, SETFA ([1]; five-point scale): 0; percentage damage to the plant, ECHCG ([2]; five-point scale): 0; percentage damage to the plant, IPOHE ([3]; five-point scale): 0; percentage damage to the plant, AMAPA ([4]; five-point scale): 3 (3=41-60%); percentage damage to the plant, AMARE ([5]; five-point scale): 0; percentage damage to the plant, ZEAMX ([6]; five-point scale): 0; Post-emergence Test AMARE, percentage damage to the plant (five-point scale) ([12]; post-emergence spray): 4 (4=61-80%); Post-emergence Test SETFA, percentage damage to the plant (five-point scale) ([8]; post-emergence spray): 1 (1=0-20%); Post-emergence Test AMAPA, percentage damage to the plant (five-point scale) ([9]; post-emergence spray): 5 (5=81-100%); Post-emergence Test IPOHE, percentage damage to the plant (five-point scale) ([10]; post-emergence spray): 2 (2=21-40%); Post-emergence Test ZEAMX, percentage damage to the plant (five-point scale) ([11]; post-emergence spray): 1 (1=0-20%)
CCn1c(C)c(-c2cccc(Oc3ccccc3)c2)c(=O)c(C(=O)O)c1-c1ccc(Cl)c(Cl)c1 [Compound 238, 2-(3,4-dichlorophenyl)-1-ethyl-6-methyl-4-oxo-5-(3-phenoxyphenyl) pyridine-3-carboxylic acid] | 0 | 0 | 0 | 0 | 0 | 0 | 1 (1=0-20%) | 4 (4=61-80%) | 1 (1=0-20%) | 1 (1=0-20%) | 3 (3=41-60%) | 
CCn1c(C)c(-c2ccc(C)cc2F)c(=O)c(C(=O)O)c1-c1ccc(Cl)c(Cl)c1 [Compound 236, 2-(3,4-dichlorophenyl)-1-ethyl-5-(2-fluoro-4-methyl-phenyl)-6-methyl-4-oxo-pyridine-3-carboxylic acid] | 4 (4=61-80%) | 3 (3=41-60%) | 4 (4=61-80%) | 2 (2=21-40%) | 1 (1=0-20%) | 1 (1=0-20%) | 2 (2=21-40%) | 5 (5=81-100%) | 5 (5=81-100%) | 2 (2=21-40%) | 5 (5=81-100%) | 
CCn1c(C)c(-c2cc(C)nn2C)c(=O)c(C(=O)O)c1-c1ccc(Cl)c(Cl)c1 [Compound 240, 2-(3,4-dichlorophenyl)-5-(2,5-dimethylpyrazol-3-yl)-1-ethyl-6-methyl-4-oxo-pyridine-3-carboxylic acid] | 5 (5=81-100%) | 3 (3=41-60%) | 1 (1=0-20%) | 0 | 0 | 0 | 4 (4=61-80%) | 4 (4=61-80%) | 4 (4=61-80%) | 1 (1=0-20%) | 3 (3=41-60%) | 
CCn1c(C)c(-c2ccc(Cl)cc2F)c(=O)c(C(=O)OC)c1-c1cnc(Cl)c(Cl)c1 [Compound 282, methyl 5-(4-chloro-2-fluoro-phenyl)-2-(5,6-dichloro-3-pyridyl)-1-ethyl-6-methyl-4-oxo-pyridine-3-carboxylate] | 1 (1=0-20%) | 1 (1=0-20%) | 0 | 4 (4=61-80%) | 3 (3=41-60%) |  | 1 (1=0-20%) | 4 (4=61-80%) | 2 (2=21-40%) | 3 (3=41-60%) | 4 (4=61-80%) | ECHCG, percentage damage caused to the plant (five-point scale) [7]: 4 (4=61-80%)
CCn1c(C)c(-c2cccc(C)c2F)c(=O)c(C(=O)O)c1-c1ccc(Cl)c(Cl)c1 [Compound 228, 2-(3,4-dichlorophenyl)-1-ethyl-5-(2-fluoro-3-methyl-phenyl)-6-methyl-4-oxo-pyridine-3-carboxylic acid] | 5 (5=81-100%) | 5 (5=81-100%) | 3 (3=41-60%) | 4 (4=61-80%) | 2 (2=21-40%) | 2 (2=21-40%) | 3 (3=41-60%) | 5 (5=81-100%) | 3 (3=41-60%) | 2 (2=21-40%) | 4 (4=61-80%) | 
CCN(CC)S(=O)(=O)c1ccc(-c2c(C)n(CC)c(-c3ccc(Cl)c(Cl)c3)c(C(=O)O)c2=O)cc1 [Compound 237, 2-(3,4-dichlorophenyl)-5-[4-(diethylsulfamoyl)phenyl]-1-ethyl-6-methyl-4-oxo-pyridine-3-carboxylic acid] | 1 (1=0-20%) | 2 (2=21-40%) | 0 | 1 (1=0-20%) | 0 | 0 | 3 (3=41-60%) | 4 (4=61-80%) | 2 (2=21-40%) | 1 (1=0-20%) | 1 (1=0-20%) | 
